Assay results: publication PMC3435407, “αA-Crystallin–Derived Mini-Chaperone Modulates Stability and Function of Cataract Causing αAG98R-Crystallin” (PLoS ONE, 2012)
Values belong to the compound of their own block, whether it stands above or below them. Non-standard residues stand in square brackets, D forms with d. No end group written: not given here. *: point of attachment. Biotin = O=C1N[C@H]2[C@H](CS[C@H]2CCCCC(=O)*)N1; Bpa = N[C@@H](Cc1ccc(C(=O)c2ccccc2)cc1)C(=O)O

Experiments:
α-crystallin = tested on: α-crystallin; design: method as in 2 sources, one per row (each row's own in cited_ref): ref [43] = [43]; PMID 8549682; doi:10.1016/s0014-4835(05)80136-8; 43 Sharma KK , Ortwerth BJ ( 1995 ) Effect of cross-linking on the chaperone-like function of alpha crystallin . Exp Eye Res 61 : 413 – 421 . 8549682 10.1016/s0014-4835(05)80136-8 ||| ref [44] = [44]; PMID 15199188; doi:10.1073/pnas.0403532101; 44 Kantorow M , Hawse JR , Cowell TL , Benhamed S , Pizarro GO , et al ( 2004 ) Methionine sulfoxide reductase A is important for lens cell viability and resistance to oxidative stress . Proc Natl Aca; details: α-crystallin in water-insoluble fraction of lens proteins; ref [43]; cited from earlier work
wild-type α-crystallin = details: modulator in 10- to 30-fold higher concentrations than α-crystallin; ref [39]–[42]; cited from earlier work
Excerpt: In those studies the modulator was used in 10- to 30-fold higher concentrations than the α-crystallin [39]–[42] and the conformational changes in α-crystallin in the presence of the modulator was considered to be responsible for the activity enhancement.

αAG98R [1] = biological target: T1, αAG98R (Homo sapiens, UniProt P02489, G98R); assay: Photo-crosslinking, SDS-PAGE and western blot; type: binding; details: for covalent association with αAG98R subunits: photolyzed, SDS-PAGE and western blot
T1 construct: the full-length human αA-crystallin cDNA cloned into pET-23d (+) vector; made in house; host or cells: E. coli BL21(DE3)pLysS
T1 sequence (P02489 whole entry G98R): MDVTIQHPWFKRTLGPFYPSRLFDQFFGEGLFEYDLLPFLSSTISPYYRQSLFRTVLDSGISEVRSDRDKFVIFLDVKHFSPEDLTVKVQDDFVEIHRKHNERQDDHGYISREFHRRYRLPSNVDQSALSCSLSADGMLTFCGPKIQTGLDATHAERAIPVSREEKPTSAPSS
Protocol: (§1) Biotinyl-αA-mini-chaperone-Bpa peptide (200 µg) was incubated with 200 µg of αAG98R crystallin in buffer, pH 7.2, at 37°C for 1 hr. Subsequently, the sample was filtered in a Microcon 10 kDa cut of filter (Millipore, Bedford, MA) to remove free peptides. The sample was photolyzed for 30 min, at 4°C, using a UV lamp (365 nm) held at a distance of 7 cm from the sample. The photolyzed sample was desalted using C18 zip tip spin columns (Thermo Fisher Scientific, Rockford, IL), as per the manufacturer's protocol, and the bound protein was eluted in 70% acetonitrile. […] The UV-photolyzed sample was subjected to SDS-PAGE and western blot analysis using antibody against biotin.
Figure 6 SDS-PAGE analysis of αAG98R cross-linked with biotinylated Bpa-mini-αA. Incubation, photolysis and SDS-PAGE (lanes 1–3), western blot (lanes 4 and 5) analysis were performed as described under methods. Lane 1, photolysed αAG98R; lane 2, αAG98R incubated with biotinyl-Bpa mini-αA and photolyzed; lane 3 mol wt markers. […] This band was absent in non-photolyzed samples (data not shown).Lanes 4 and 5 western blot of lanes 1 and 2 respectively. […] The figure is representative of 3 independent experiments.

αAG98R [2] = biological target: T1, αAG98R; assay: Photo-crosslinking, MALDI-TOF/TOF MS; type: binding; details: photolyzed; restated in the discussion
Protocol: as §1
Figure 7 MALDI-TOF MS spectrum of αAG98R photolyzed after incubation with or without biotinyl-Bpa-mini-αA-crystallin. A, αAG98R after photolysis; B, αAG98R photolyzed after incubation with biotinyl-Bpa mini-αA. The αAG98R-Bpa mini-αA complex with m/z 22592 is indicated by an arrow. Mass spectrometric analysis confirms the 1∶1 interaction of mini-chaperone with αAG98R monomer. The figure is representative of 3 independent experiments.

[3] = tested on: alcohol dehydrogenase (ADH); assay: ADH aggregation assay, heat-denatured (chaperone-like activity); type: biochemical; details: peptide alone, 43°C
Protocol: (§2) Aggregation assay was performed in 1 ml 50 mM phosphate buffer containing 150 mM NaCl and 100 mM EDTA at 43°C. The chaperone activity of Biotin-[…](Bpa)[…] as well as a Pro-substituted mini-chaperone ([…]) was also measured by ADH aggregation assay. The extent of aggregation was estimated by monitoring the light scattering at 360 nm using a Shimadzu UV-VIS spectrophotometer equipped with a temperature-controlled multi-cell transporter.
Similar to our earlier observation, αAG98R suppressed ADH aggregation during the early part of the 2 hr assay but the assay mixture started to scatter light after 60 min (Figure 5A).
Figure 5 Effect of the addition of αA-crystallin–derived mini-chaperone on the chaperone-like activity of αAG98R against ADH aggregation. […] The figures represent the typical data obtained multiple times with WT-αA-crystallin and stabilized αAG98R.

αAG98R [4] = biological target: T1, αAG98R; assay: Recovery of soluble αAG98R after incubation at 43°C (gel filtration, TSK G5000PWXL); type: biochemical; details: 75 µg αAG98R
Protocol: (§3) Samples were injected on to a TSK G5000PWXL (Tosoh Bioscience, Montgomeryville, PA) size-exclusion column equilibrated with 50 mM sodium phosphate buffer containing 150 mM NaCl (pH 7.2). The flow rate was set to 0.75 ml/min. The column was attached to a HPLC system connected with UV and refractive index detectors and coupled to a static multi-angle laser light scattering (DAWN-EOS) and dynamic quasi-elastic light scattering detectors (Wyatt Technology, Santa Barbara, CA). The molar mass (Mw), hydrodynamic radius (Rh) and polydispersity index (PDI) were determined using ASTRA (5.3.2) software developed by Wyatt Technology.
(§4) We know from previous studies thatαA-mini-chaperone suppresses the aggregation and precipitation of denaturing proteins, [29], [30]. […] The samples were centrifuged to remove any precipitate formed during incubation, and the supernatant was analyzed by TSKG5000 PWXL gel filtration column connected to a multi-angle laser light scattering (DAWN-EOS) and dynamic quasi-elastic light scattering detectors. […] The first peak corresponded to the oligomeric form of αAG98R, whereas the second peak represented dissociated subunits of the mutant protein. […] The hydrodynamic radius (Rh) of the stabilized αAG98R increased from 15.3 nm to 16.4 nm, consistent with increase in molar mass.

αAG98R [5] = biological target: T1, αAG98R; assay: αAG98R recovery with different amounts of mini-chaperone (43°C, 30 min); type: binding; details: 1∶2 ratio (mol/mol) of αAG98R to mini-αA, 10 µM αAG98R
αAG98R [6] = biological target: T1, αAG98R; assay: Thermal aggregation monitored by light scattering at 360 nm; type: biochemical; details: 750 µg αAG98R, 1.7∶1 (mol/mol) ratio, 90 min, representative of 3 experiments
Protocol: Light scattering was monitored at 360 nm for 90 min using a spectrophotometer. […] Because αAG98R is a structurally perturbed protein [20], [21], we hypothesize that the mini-chaperone interacted with mutant αAG98R and prevented aggregation and light scattering. […] The aggregation and precipitation of αAG98R also occurred at 37°C but at a slower rate. […] Nearly 80% of αAG98R was recovered when the incubation was carried out with 1∶2 ratio (mol/mol) of αAG98R to mini-αA-.
The protein samples (750 µg) were incubated in 1 ml PO4 buffer, pH 7.2 at 43°C and light scattering was continually monitored at 360 nm for 90 min in a spectrophotometer. […] The figure is representative of 3 independent experiments.

[7] = tested on: alcohol dehydrogenase (ADH); assay: EDTA-induced ADH aggregation assay at 37°C; type: biochemical; details: 250 µg ADH, 50 µg peptide, representative of two experiments
Protocol: as §2
The EDTA-induced aggregation of ADH assay was performed at 37°C as described under methods. In each experiment 250 µg of ADH was used. […] The figure is representative of two independent experiments. (TIF) Click here for additional data file.

[8] = tested on: ADH, citrate synthase, insulin and α-lactalbumin; design: method as in PMID 10660525, PMID 11350603, PMID 11563692; details: ref [26], [29], [30]; cited from earlier work
[9] = tested on: αAG98R / wild-type αA-crystallin oligomer; assay: Multi-angle/quasi-elastic light scattering of αA-crystallin oligomers; type: physicochemical, human; details: 43°C, wild-type protein
Protocol: as §3, §4

[10] = tested on: αAG98R / wild-type αA-crystallin; assay: Far-UV CD thermal denaturation (218 nm); type: physicochemical, human; details: 100 µg/400 µl, 10 mM phosphate pH 7.2, listed as αA-crystallin mini-chaperone = αAG98R incubated with it
Protocol: Circular dichroism (CD) spectropolarimeter, J815 (Jasco, Easton, MD), equipped with a temperature control system, was employed to record CD spectra. Far-UV CD measurements were carried out over the wavelength range of 190 to 250 nm with bandwidth 0.5 nm, scan speed 10 nm/min using 0.1-cm path length cuvettes. Protein samples were prepared in 10 mM sodium phosphate buffer (pH 7.2). Spectra are the average of five scans. Buffer signal was subtracted prior to reporting the data. Thermal denaturation data were collected from 25°C to 45°C, with protein concentration of 100 µg/400 µl. Thermal denaturation experiments were performed with a heating rate of 1°C/min, and CD signals at 218 nm were used to determine transition midpoints. Near-UV CD spectra were recorded using a protein sample of 1.5 mg/ml in the buffer used for far-UV studies.
Proteins, 100 µg, were prepared in 400 µl of10 mM phosphate buffer, pH 7.2, and the sample temperatures were slowly raised from 25 to 48°C in 2°C steps, equilibrated for 5 min at each temperature prior to far-UV CD measurement. Molar ellipticity changes at 218 nm were plotted to determine relative stability of samples. […] The spectra were recorded using a protein sample of 1.5 mg/ml. The profile shown is the average of 5 scans.

Compound: O[C@@H](CS)[C@@H](O)CS (racemic) [dithiothreitol (DTT), dithiothreitol]
restoration of chaperone activity by DTT (α-crystallin): restores some of the lost chaperone activity

Compound: Nc1ncnc2c1ncn2[C@@H]1O[C@H](COP(=O)(O)OP(=O)(O)OP(=O)(O)O)[C@@H](O)[C@H]1O [ATP]
modulation of wild-type α-crystallin chaperone activity (wild-type α-crystallin): Modulation of wild-type α-crystallin chaperone activity

Compound: N=C(N)NN [aminoguanidine]
modulation of wild-type α-crystallin chaperone activity (wild-type α-crystallin): Modulation of wild-type α-crystallin chaperone activity

Compound: N=C(N)NCCC[C@H](N)C(=O)O [arginine]
modulation of wild-type α-crystallin chaperone activity (wild-type α-crystallin): Modulation of wild-type α-crystallin chaperone activity

Compound: N[C@@H](CCC(=O)N[C@@H](CS)C(=O)NCC(=O)O)C(=O)O [glutathione]
modulation of wild-type α-crystallin chaperone activity (wild-type α-crystallin): Modulation of wild-type α-crystallin chaperone activity

Compound: Biotin-DFVIFLDVKH[Bpa]SPEDLTVK [biotinyl-Bpa-mini-chaperone] [listing 1 of 2 here]
αAG98R photo-crosslinked (image analysis of stained gel) (αAG98R [1]; 200 µg peptide + 200 µg αAG98R, pH 7.2, 37°C, 1 hr, photolysis 365 nm 30 min 4°C, representative of 3 experiments): about 10%
covalent association with αAG98R subunits (αAG98R [1]; representative of 3 experiments): covalent association of αA-mini-chaperone with αAG98R subunits was observed
covalent association with αAG98R subunits (αAG98R [1]; representative of 3 experiments, listed as biotinyl-Bpa mini-αA): confirms the binding of a mini-chaperone to a subunit of αAG98R
Bpa-peptide incorporated into αAG98R subunit (αAG98R [2]): about 10%

Compound: Biotin-DFVIFLDVKH[Bpa]SPEDLTVK [biotinyl-Bpa-mini-chaperone] [listing 2 of 2 here]
binding stoichiometry (SDS-PAGE/western blot) (αAG98R [1]; photolyzed mixture): one peptide was incorporated into one subunit of αAG98R
chaperone activity of Bpa peptide (heat-denatured ADH) [3]: retained chaperone activity
chaperone activity of Bpa peptide (heat-denatured ADH) ([3]; listed as biotin-DFVIFLDVKH(benzoylphenylalanine)SPEDLTVK): active in suppressing the aggregation of heat-denatured ADH

mutant protein recovered in soluble form (percent) (αAG98R [4]; with or without 10 µg αA-mini-chaperone, 1 hr, listed as αAG98R = absence of mini-chaperone): 79%
recovery of αAG98R (αAG98R [5]): ~80%
Compound: DFVIFLDVKHFSPEDLTVK [αA-mini-chaperone]

chaperone activity of Pro-substituted peptide (EDTA-induced ADH aggregation) [7]: no chaperone activity
Compound: DFVPFLDVKHFSPEDLTVK [Pro-substituted mini-chaperone]
effect on monomeric peak / dissociation / precipitation of αAG98R (αAG98R [4]; gel filtration TSK G5000PWXL): did not prevent the precipitation of αAG98R
suppression of αAG98R aggregation, 43°C (αAG98R [6]): failed to suppress precipitation of the mutant protein
chaperone activity of Pro-substituted peptide (EDTA-induced ADH aggregation) ([7]; listed as αA-mini-chaperone (pro)): Pro-substitution abolishes the chaperone activity of mini-chaperone

Compound: KFVIFLDVKHFSPEDLTVK [αA70-88, 19 amino acid peptide representing the chaperone site in αA-crystallin]
suppression of aggregation of denaturing ADH, citrate synthase, insulin and α-lactalbumin; chaperone-like function [8]: functions like a molecular chaperone

Compound: wild-type αA-crystallin: recombinant wild-type human αA-crystallin expressed in E. coli
oligomeric size and molar mass change upon incubation [9]: oligomeric size and molar mass did not change
temperature up to which / above which 218 nm ellipticity is stable / changes [10]: 40 °C
